The text below walks through data of patent US9999616B2 (ZENITH EPIGENETICS LTD., priority 2013, dated 2018).

Assay [1] has as its system c-myc in Human AML MV4-11 cells. Put plainly: Inhibition of cMYC expression (mRNA, real-time PCR) in MV4-11 cells. The assay is classed as cell-based. To be noted: 3 h treatment, cMYC mRNA by real-time PCR. The procedure, abridged: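 MV4-11 cells in IMDM with 10% FBS were treated with increasing compound concentrations (DMSO 0.1%) for 3 h at 37 °C, in triplicate. Isolated mRNA was quantified by one-step TaqMan RT-qPCR, cMYC Ct normalized to cyclophilin, and fold expression given relative to DMSO control.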
In general terms: Real-time PCR tracks product formation cycle by cycle.

Assay [2] concerns Human AML MV-4-11 cells. Put plainly: Inhibition of cell proliferation in MV4-11 cells (CellTiter Aqueous One). Format: cell-based. The following applies: MV4-11, 72 h. The procedure, abridged:
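MV4-11 cells, 5×10^4 per well in IMDM with 10% FBS, were exposed to increasing compound concentrations or 0.1% DMSO for 72 h at 37 °C in triplicate. Viability was read by MTS (CellTiter Aqueous One) absorbance at 490 nm after 3-4 h. IC50 was derived from background-corrected signal relative to DMSO.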

For assay [3], the system named is hIL-6 mRNA. The experiment in a line: Inhibition of hIL-6 mRNA transcription in LPS-stimulated U937 macrophages. To be noted: 1 h pretreatment, LPS 3 h; for IC50: Homo sapiens, U-937, PMA-differentiated U937 cells, read-out: IL-6 activity. Format: cell-based, Human. The protocol:
Human leukemic monocyte lymphoma U937 cells (CRL-1593.2) were plated at a density of 3.2×10^4 cells per well in a 96-well plate in 100 μL RPMI-1640 containing 10% FBS and penicillin/streptomycin, and differentiated into macrophages for 3 days in 60 ng/mL PMA ([…]) at 37° C. in 5% CO2 prior to the addition of compound. The cells were pretreated for 1 h with increasing concentrations of test compound in 0.1% DMSO prior to stimulation with 1 ug/mL lipopolysaccharide from Escherichia coli. Triplicate wells were used for each concentration. The cells were incubated at 37° C., 5% CO2 for 3 h before the cells were harvested. At time of harvest, media was removed and cells were rinsed in 200 μL PBS. Cells were harvested using the mRNA Catcher PLUS kit according to manufacturer's instructions. The eluted mRNA was then used in a one-step quantitative real-time PCR reaction using components of the RNA UltraSense™ One-Step Kit (Life Technologies) together with Applied Biosystems TaqMan® primer-probes for hIL-6 and Cyclophilin. Real-time PCR plates were run on a ViiA™7 real time PCR machine (Applied Biosystems), data was analyzed, normalizing the Ct values for hlL-6 to an internal control, prior to determining the fold expression of each sample, relative to the control.

In assay [4] the target is Brd4 bromodomain 1 (BRD4(1)) (Homo sapiens, UniProt O60885). The experiment in a line: Inhibition of tetra-acetylated histone H4 binding to Brd4 bromodomain 1, measured by FRET (HTRF). Further details: made in house; host or cells: E. coli BL21(DE3). To be noted: 2 h at room temperature. The procedure, abridged: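 N-terminally His-tagged bromodomain (200 nM), expressed in E. coli and purified by Ni affinity and size exclusion, was incubated with biotinylated tetra-acetylated H4 peptide (25-50 nM), Eu-cryptate streptavidin and XL665 anti-His in HEPES pH 7.4 buffer with 0.2% DMSO. Reactions ran 2 h at room temperature. IC50 came from the 665/620 nm fluorescence decrease.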
In general terms: Time-resolved FRET reads energy transfer from a long-lived donor to a nearby acceptor.

`CC(=O)Nc1ccccc1-c1cc(-c2c(C)noc2C)cc2[nH]c(C)nc12` [Example Compound 64, N-(2-(6-(3,5-dimethyl-isoxazol-4-yl)-2-methyl-1H-benzo[d]imidazol-4-yl)phenyl) acetamide]: the IC50 in assay [1] is 0.3 to 3 µM; in assay [2] it was 0.3 to 3 µM; in assay [3], no more than 0.3 µM; in assay [4] it was no more than 0.3 µM.

As to `CNC(=O)c1onc(C)c1-c1cc(-c2c(C)noc2C)cc2[nH]c(C)nc12` [Example Compound 67, 4-(5-(3,5-dimethyl-isoxazol-4-yl)-2-methyl-1H-benzo[d]imidazol-7-yl)-N,3-dimethyl isoxazole-5-carboxamide], the IC50 in assay [1] was 0.3 to 3 µM; in assay [2] it was 3 to 30 µM; in assay [4], no more than 0.3 µM. Besides, in assay [3] (PMA-differentiated U937 cells), the IL-6 activity result is listed as “Not active”.

For `Cc1nc2c(-c3ccccc3S(C)(=O)=O)cc(-c3c(C)noc3C)cc2[nH]1` [Example Compound 69, 3,5-dimethyl-4-(2-methyl-4-(2-(methyl-sulfonyl)phenyl)-1H-benzo[d]imidazol-6-yl)isoxazole], the IC50 was 0.3 to 3 µM in assay [1], 0.3 to 3 µM in assay [2], 0.3 to 3 µM in assay [3] and no more than 0.3 µM in assay [4].

Consider `COc1ccncc1-c1cc(-c2c(C)noc2C)cc2[nH]c(C)nc12` [Example Compound 72, 4-(4-(4-methoxy-pyridin-3-yl)-2-methyl-1H-benzo[d]imidazol-6-yl)-3,5-dimethyl isoxazole], for which the IC50 was 0.3 to 3 µM in assay [1], 0.3 to 3 µM in assay [2], 0.3 to 3 µM in assay [3] and no more than 0.3 µM in assay [4].

For the molecule `Cc1nc2c(-c3cc(C(N)=O)ccc3C)cc(-c3c(C)noc3C)cc2[nH]1` [Example Compound 74, 3-(6-(3,5-dimethyl-isoxazol-4-yl)-2-methyl-1H-benzo[d]imidazol-4-yl)-4-methyl benzamide], the IC50 was 0.3 to 3 µM in assay [1], 0.3 to 3 µM in assay [2], 0.3 to 3 µM in assay [3] and no more than 0.3 µM in assay [4].

Take `Cc1noc(C)c1-c1cc(-c2c(C)noc2C)c2[nH]c(CC(F)(F)F)nc2c1` [Example Compound 76, 4,4′-(2-(2,2,2-trifluoro-ethyl)-1H-benzo[d]imidazole-5,7-diyl)bis(3,5-dimethylisoxazole)]: the IC50 in assay [1] is 0.3 to 3 µM; in assay [2], 0.3 to 3 µM; in assay [3] it was 0.3 to 3 µM; in assay [4], no more than 0.3 µM.

As for `Cc1nc2c(-c3ccccc3OC(F)(F)F)cc(-c3c(C)noc3C)cc2[nH]1` [Example Compound 77, 3,5-dimethyl-4-(2-methyl-4-(2-(trifluoro-methoxy)phenyl)-1H-benzo[d]imidazol-6-yl)isoxazole], the IC50 in assay [1] was no more than 0.3 µM; in assay [2], 0.3 to 3 µM; in assay [3], 0.3 to 3 µM; in assay [4] it was no more than 0.3 µM.

As for `Cc1nc2c(-c3cccnc3)cc(-c3c(C)noc3C)cc2[nH]1` [Example Compound 79, 3,5-dimethyl-4-(2-methyl-4-(pyridin-3-yl)-1H-benzo[d]imidazol-6-yl)isoxazole], the IC50 is no more than 0.3 µM in assay [1], 0.3 to 3 µM in assay [2], 0.3 to 3 µM in assay [3] and no more than 0.3 µM in assay [4].

For the molecule `Cc1nc2c(-c3cc(F)ccc3C(F)(F)F)cc(-c3c(C)noc3C)cc2[nH]1` [Example Compound 80, 4-(4-(5-fluoro-2-(trifluoro-methyl)phenyl)-2-methyl-1H-benzo[d]imidazol-6-yl)-3,5-dimethyl isoxazole], the IC50 in assay [1] was no more than 0.3 µM; in assay [2] it was 0.3 to 3 µM; in assay [3], 0.3 to 3 µM; in assay [4] it was no more than 0.3 µM.

As for `Cc1nc2c(-c3ncccc3C)cc(-c3c(C)noc3C)cc2[nH]1` [Example Compound 84, 3,5-dimethyl-4-(2-methyl-4-(3-methyl-pyridin-2-yl)-1H-benzo[d]imidazol-6 yl)isoxazole], the IC50 in assay [1] fell in the range of 0.3 to 3 µM; in assay [2] it was 3 to 30 µM; in assay [3] it was 0.3 to 3 µM; in assay [4], 0.3 to 3 µM.

Turning to `Cc1nc2c(-c3cnccn3)cc(-c3c(C)noc3C)cc2[nH]1` [Example Compound 85, 3,5-dimethyl-4-(2-methyl-4-(pyrazin-2-yl)-1H-benzo[d]imidazol-6-yl)isoxazole], the IC50 is 3 to 30 µM in assay [1], 3 to 30 µM in assay [2], 0.3 to 3 µM in assay [3] and no more than 0.3 µM in assay [4].

As to `Cc1noc(C)c1-c1cc(-c2c(C)noc2C)c2cn[nH]c2c1` [Example Compound 87, 4,4′-(1H-indazole-4,6-diyl)bis(3,5-dimethylisoxazole)], the IC50 in assay [1] is 0.3 to 3 µM; in assay [2] it was 0.3 to 3 µM; in assay [3], 0.3 to 3 µM; in assay [4], no more than 0.3 µM.

Take `Cc1nc2c(-c3ccccc3)cc(-c3c(C)noc3C)cc2[nH]1` [Example Compound 88, 3,5-dimethyl-4-(2-methyl-4-phenyl-1H-benzo[d]imidazol 6-yl)isoxazole]: the IC50 was 0.3 to 3 µM in assay [1], 0.3 to 3 µM in assay [2], 0.3 to 3 µM in assay [3] and no more than 0.3 µM in assay [4].

For `Cc1nc2c(-c3ccccc3C)cc(-c3c(C)noc3C)cc2[nH]1` [Example Compound 89, 3,5-dimethyl-4-(2-methyl-4-(o-tolyl)-1H-benzo[d]imidazol-6-yl)isoxazole], the IC50 in assay [1] was no more than 0.3 µM; in assay [2] it was 0.3 to 3 µM; in assay [3] it was 0.3 to 3 µM; in assay [4], no more than 0.3 µM.

Turning to `Cc1nc2c(-c3ccccc3F)cc(-c3c(C)noc3C)cc2[nH]1` [Example Compound 91, 4-(4-(2-fluoro-phenyl)-2-methyl-1H-benzo[d]imidazol-6-yl)-3,5-dimethyl isoxazole], the IC50 is no more than 0.3 µM in assay [1], 0.3 to 3 µM in assay [2], no more than 0.3 µM in assay [3] and no more than 0.3 µM in assay [4].

On to `Cc1noc(C)c1-c1cc(-c2c(C)noc2C)c2c(c1)ncn2C` [Example Compound 93, 4,4′-(1-methyl-1H-benzo[d]imidazole-5,7-diyl)bis(3,5-dimethylisoxazole)], for which the IC50 is no more than 0.3 µM in assay [1], 0.3 to 3 µM in assay [2], no more than 0.3 µM in assay [3] and no more than 0.3 µM in assay [4].

`Cc1nc2c(-c3cc(F)ccc3C#N)cc(-c3c(C)noc3C)cc2[nH]1` [Example Compound 94, 2-(6-(3,5-dimethyl-isoxazol-4-yl)-2-methyl-1H-benzo[d]imidazol-4-yl)-4-fluoro-benzonitrile]: the IC50 in assay [1] is 0.3 to 3 µM; in assay [2], 0.3 to 3 µM; in assay [3], 0.3 to 3 µM; in assay [4], no more than 0.3 µM.

On to `Cc1nc2c(-c3c(C)ncnc3C)cc(-c3c(C)noc3C)cc2[nH]1` [Example Compound 98, 4-(4-(4,6-dimethyl-pyrimidin-5-yl)-2-methyl-1H-benzo[d]imidazol-6-yl)-3,5-dimethyl isoxazole], for which the IC50 is 0.3 to 3 µM in assay [1], 0.3 to 3 µM in assay [2], 0.3 to 3 µM in assay [3] and no more than 0.3 µM in assay [4].

On to `Cc1nc2c(-c3c(C)nc(N)nc3C)cc(-c3c(C)noc3C)cc2[nH]1` [Example Compound 99, 5-(6-(3,5-dimethyl-isoxazol-4-yl)-2-methyl-1H-benzo[d]imidazol-4-yl)-4,6-dimethyl pyrimidin-2-amine], for which the IC50 in assay [1], in assay [2], in assay [3] and in assay [4] was no more than 0.3 µM throughout.

Regarding `Cc1nc2c(-c3scnc3C)cc(-c3c(C)noc3C)cc2[nH]1` [Example Compound 104, 3,5-dimethyl-4-(2-methyl-4-(4-methyl-thiazol-5-yl)-1H-benzo[d]imidazol-6-yl)isoxazole], the IC50 was 0.3 to 3 µM in assay [1], 0.3 to 3 µM in assay [2], no more than 0.3 µM in assay [3] and no more than 0.3 µM in assay [4].

For `Cc1nc2c(-c3cc(Cl)ccc3C)cc(-c3c(C)noc3C)cc2[nH]1` [Example Compound 105, 4-(4-(5-chloro-2-methyl-phenyl)-2-methyl-1H-benzo[d]imidazol-6-yl)-3,5-dimethyl isoxazole], the IC50 is no more than 0.3 µM in assay [1], 0.3 to 3 µM in assay [2], no more than 0.3 µM in assay [3] and no more than 0.3 µM in assay [4].
